Here are results for one molecule from patent publication US7879795B2, “Enhancement of tigecycline potency using efflux pump inhibitors” (Mpex Pharmaceuticals, Inc., priority 2004, dated 2011).

Values after ≈ are worked out from the molar mass of the structure shown.

Experiment [1] deals with Enterobacter aerogenes 19. As to the kind of experiment: Antibiotic MIC with fixed concentration of compound 21, Enterobacter aerogenes 19. The format is cell-based. To be noted: tigecycline alone.
Experiment [2] deals with P. aeruginosa strain PAM 1032. In words: Mouse model of P. aeruginosa sepsis infection (tigecycline 50% effective dose). Conditions: mice, tigecycline SC at 0 and 2 hours; Reed and Meunch. The experiment is classed as in vivo. On the procedure:
Tigecycline and compound 21 were prepared in sterile 0.9% saline. Seventy Swiss-Webster mice (Harlan laboratories) with body weights ranging from 22 to 25 grams at the start of the study were used. Upon receipt, the animals were housed 5 per cage in a room with a controlled environment and were acclimated to laboratory conditions for at least 24 hours prior to the start of dosing. Animals were provided food and water ad libitum. The health status of the animals was determined during the acclimation period and unhealthy animals were not placed on study. Each animal was identified by marking their tails with indelible ink and each cage was identified by animal, group, and study number.
P. aeruginosa strain PAM 1032 was grown in Mueller-Hinton Broth (MHB) at 35° C. under constant aeration. After 20 hours, the inoculum was sub-cultured into fresh MHB and allowed to regrow at 35° C., under constant aeration, for 4 hours. The inoculum was adjusted to ca. 4×10^7 CFU/ml by correlation of absorbance at 600 nm with predetermined plate counts. The inoculum was then diluted 2-fold in 14% hog-gastric mucin (Sigma, St. Louis, Mo.) for a final inoculum concentration of 2×10^7 CFU/ml. […] At 0 and 2 hours following infection, tigecycline was administered by the subcutaneous route and compound 21 was administered by the intraperitoneal route. […] The susceptibility of the test strain (P. aeruginosa PAM1032, […] MexAB-OprM) to tigecycline was 4 ug/ml, the susceptibility of the test strain to tigecycline in the presence of 2.5 μg/mL of compound 21 was 0.25 μg/mL.

The subject of experiment [3] is PAM 1626, Four pumps non-functional. As to the kind of experiment: Tigecycline potentiation checkerboard assay, PAM 1626. The format is cell-based, P. aeruginosa. Conditions: Pseudomonas aeruginosa, read-out: Tigecycline MIC in the presence of Compound 21. Here is the method:
(§1) The ability of compound 21 to increase susceptibility to tigecycline was also assessed. The tigecycline potentiating activity of compound 21 was assessed by the checkerboard assay (Antimicrobial Combinations, Antibiotics in Laboratory Medicine, ed. Victor Lorian, M.D., Fourth edition, 1996, pp 333-338, which is incorporated herein by reference in its entirety) using a broth micro-dilution method performed as recommended by the CSLI (Clinical and Laboratory Standards Institute, formerly NCCLS) guidelines (National Committee for Clinical Laboratory Standards 2003. Methods for Dilution Antimicrobial Susceptibility Tests for Bacteria That Grow Aerobically—Sixth Edition; Approved Standard. NCCLS Document M7-A6, Vol 20 No. 2). In this assay, multiple dilutions of the two drugs, compound 21 and tigecycline, were tested alone and in combination, at concentrations equal to, above and below their respective minimal inhibitory concentrations (MICs). […] The stock solution was further diluted in Mueller Hinton Broth (MHB). Stock solutions were stored at −80° C.
(§2) The checkerboard assay was performed in microtiter plates. Tigecycline was diluted in the x axis, each column containing a single concentration of tigecycline. Compound 21 was diluted in the y axis, each row containing an equal concentration of the EPI. […] The assay was performed in MHB with a final bacterial inoculum of 5×10^5 CFU/ml (from an early-log phase culture). The microtiter plates were incubated for 20 hours at 35° C. and then read using a microtiter plate reader (Molecular Devices) at 650 nm, as well as by visual observation using a microtiter plate-reading mirror.

The next experiment concerns Citrobacter freundii 13. In words: Antibiotic MIC with fixed concentration of compound 21, Citrobacter freundii 13. The format is cell-based. Conditions: tigecycline alone. Here is the method: (§3) To further characterize the clinical potential of tigecycline/EPI combinations, the microbiological activity of tigecycline in combination with compound 21 was investigated using clinical isolates of P. aeruginosa and other gram-negative bacteria. In several experiments, described below, the impact of a fixed concentration of compound 21 (2.5 μg/ml) on susceptibility to tigecycline was determined.
(§4) The impact of compound 21 on the activity of tigecycline against representative members of Enterobacteriacaea was also tested.

In experiment [4] the test system is PAM 1323, mexZ, MexXY-OprM over-expressed, MexAB-OprM low level. In words: microbe, parasite or virus in culture. The format is cell-based, P. aeruginosa. To be noted: Pseudomonas aeruginosa, read-out: Tigecycline MIC in the presence of Compound 21. Here is the method: as §1, §2
Experiment [5] concerns PAM 2466, mexR1, MexAB-OprM and MexXY-OprM over-expressed. In words: microbe, parasite or virus in culture. The format is cell-based, P. aeruginosa. Conditions: Pseudomonas aeruginosa, read-out: Tigecycline MIC in the presence of Compound 21. Here is the method: as §1, §2
Experiment [6] relates to PAM 1738, MexCD-OprJ over-expressed, ΔMexAB-OprM ΔMexEF-OprN. As to the kind of experiment: microbe, parasite or virus in culture. The experiment is classed as cell-based, P. aeruginosa. Conditions: Pseudomonas aeruginosa, read-out: Tigecycline MIC in the presence of Compound 21. Here is the method:
as §1, §2

Experiment [7] concerns PAM 1723, MexAB-OprM over-expressed, ΔMexCD-OprJ ΔMexEF-OprN. As to the kind of experiment: microbe, parasite or virus in culture. The experiment is classed as cell-based, P. aeruginosa. To be noted: Pseudomonas aeruginosa, read-out: Tigecycline MIC in the presence of Compound 21. On the procedure: as §1, §2
The subject of experiment [8] is laboratory strains of P. aeruginosa. In words: Tigecycline susceptibility of laboratory strains of P. aeruginosa over-expressing or lacking efflux pumps. The format is cell-based. Conditions: compared to the wild-type strain PAM1020. Here is the method: as §1, §2
The test system of experiment [9] is Strain S41, a clinical isolate. In words: microbe, parasite or virus in culture. The experiment is classed as cell-based, P. aeruginosa.
The test system of experiment [10] is PAM 1753, MexEF-OprN over-expressed. In words: Tigecycline potentiation checkerboard assay, PAM 1753. The format is cell-based, P. aeruginosa. Conditions: Pseudomonas aeruginosa, read-out: Tigecycline MIC in the presence of Compound 21. On the procedure:
as §1, §2

Another experiment concerns Klebsiella pneumonia 73. As to the kind of experiment: Antibiotic MIC with fixed concentration of compound 21, Klebsiella pneumonia 73. The experiment is classed as cell-based. To be noted: tigecycline alone. Here is the method: as §3, §4
Experiment [11] relates to PAM 1032, nalB, MexAB-OprM over-expressed. In words: microbe, parasite or virus in culture. The format is cell-based, P. aeruginosa. Here is the method:
as §1, §2
P. aeruginosa strain PAM 1032 was grown in Mueller-Hinton Broth (MHB) at 35° C. under constant aeration. After 20 hours, the inoculum was sub-cultured into fresh MHB and allowed to regrow at 35° C., under constant aeration, for 4 hours. The inoculum was adjusted to ca. 4×10^7 CFU/ml by correlation of absorbance at 600 nm with predetermined plate counts. The inoculum was then diluted 2-fold in 14% hog-gastric mucin (Sigma, St. Louis, Mo.) for a final inoculum concentration of 2×10^7 CFU/ml. […] At 0 and 2 hours following infection, tigecycline was administered by the subcutaneous route and compound 21 was administered by the intraperitoneal route.

In the next experiment the test system is Klebsiella pneumonia. To be noted: cited from earlier work.
The test system of experiment [12] is 110 clinical isolates of P. aeruginosa. As to the kind of experiment: Tigecycline susceptibility of P. aeruginosa clinical isolates with fixed concentration of compound 21. To be noted: tigecycline alone; 110 clinical isolates. The format is cell-based. Here is the method: as §3
Results from an experiment using 110 clinical isolates of P. aeruginosa are presented in FIG. 1, as the distribution of tigecycline MICs with or without the EPI potentiator.

For the next experiment, the system named is Enterobacter cloacae 25. As to the kind of experiment: Antibiotic MIC with fixed concentration of compound 21, Enterobacter cloacae 25. The experiment is classed as cell-based. To be noted: tigecycline alone.
Another experiment concerns PAM 1020, wt. In words: Tigecycline potentiation checkerboard assay, PAM 1020. The experiment is classed as cell-based, P. aeruginosa. To be noted: Pseudomonas aeruginosa, read-out: Tigecycline MIC in the presence of Compound 21. Here is the method:
as §1, §2

Another experiment deals with Klebsiella pneumonia 79. In words: Antibiotic MIC with fixed concentration of compound 21, Klebsiella pneumonia 79. The format is cell-based. To be noted: tigecycline alone. On the procedure: as §3, §4

With `CN(C)c1cc(NC(=O)CNC(C)(C)C)c(O)c2c1C[C@H]1C[C@H]3[C@H](N(C)C)C(O)=C(C(N)=O)C(=O)[C@@]3(O)C(O)=C1C2=O` [Tigecycline], the Tig (MIC) in experiment [1] came to 4 µg/mL; in the experiment with Citrobacter freundii 13, 4 µg/mL; in the experiment with Klebsiella pneumonia 73 it was 2 µg/mL; in the experiment with Enterobacter cloacae 25 it was 2 µg/mL; in the experiment on Klebsiella pneumonia 79 it was 4 µg/mL. For the same molecule, in [2], the “50% effective dose of tigecycline alone” value is on record as “greater than 200 mg/kg”. For the same molecule, the MIC in [3] is 0.0005 µg/mL; in experiment [4] it was 0.004 µg/mL; in [5], 0.008 µg/mL; in [6] it was 0.001 µg/mL; in [7] it was 0.004 µg/mL; in [9] (Pseudomonas aeruginosa, read-out: Tigecycline MIC, alone) it was 1 µg/mL (≈ 1.71 µM). In addition, the MIC in experiment [10] stood at 0.002 µg/mL; in experiment [11] (Pseudomonas aeruginosa, read-out: Tigecycline MIC in the presence of Compound 21), 0.004 µg/mL; with PAM 1020, wt it was 0.002 µg/mL. Also, the “increase in susceptibility to tigecycline on deleting all four efflux pumps (PAM1626)” value in experiment [8] is 4 fold. Further, the “Mutation Frequency on Tigecycline at 4 μg/ml, alone” value in experiment [9] (strain S41, 4× MIC) was 8.3 × 10^−8. Moreover, the “susceptibility of the test strain to tigecycline” value in experiment [11] (PAM1032, tigecycline alone) was determined as 4 µg/mL. In the experiment on Klebsiella pneumonia, the “frequency of emergence of efflux-mediated tigecycline resistance” value is given as ~4×10^−8. The MIC50, Tigecycline in [12] was 2 µg/mL. For the same molecule, in experiment [12], the MIC90, Tigecycline turned out to be 8 µg/mL.
